# In patent US6340560B1, “Aminopolycarboxylic acid chelating agent, heavy metal chelate compound thereof, photographic additive and processing method” (Fuji Photo Film Co., Ltd., priority 1996, dated 2002):
# Experiment: Example 12: biodegradability, 302 Revised Zahn-Wellens test (OECD Chemical Test Guideline)
SMILES,biodegradable [%],biodegradability (in words)
CN(CCN(C)[C@@H](CC(=O)O)C(=O)O)[C@@H](CC(=O)O)C(=O)O [Compound 32],70,–
CN(CCN(C)[C@@H](CCC(=O)O)C(=O)O)[C@@H](CCC(=O)O)C(=O)O [Compound 45],70,–
"O=C(O)CN(CCN(CC(=O)O)CC(=O)O)CC(=O)O [Ethylenediaminetetraacetic acid, reference compound]",–,scarcely biodegradable
